Test results reported in patent US20070128217A1 (priority 2003, published 2007).

Key:
[1] = system: antibodies in sera from SARS patients (sera 1a, 1b, 2, 6, 37, 62, London, SARS-yellow, SARS-green); assay type: binding, human; parameters: Binding of serum 6 to linear peptides of protein X1 of SARS-CoV Urbani / Binding of serum 37 to linear peptides of protein X1 of SARS-CoV Urbani / Binding of serum 6 to looped/cyclic peptide (PEPSCAN-ELISA) / Binding of serum 37 to looped/cyclic peptide (PEPSCAN-ELISA) / Binding of serum 37 to looped/cyclic peptides of protein X1 of SARS-CoV Urbani / Binding of serum 6 to linear peptides of protein X2 / Binding of serum 37 to linear peptides of protein X2 / Binding of serum 37 to looped/cyclic peptides of protein X2 of SARS-CoV Urbani / Binding of serum 6 to linear peptides of protein M of SARS-CoV Urbani / Binding of serum 37 to linear peptides of protein M of SARS-CoV Urbani / Binding of serum 6 to looped/cyclic peptides of protein M of SARS-CoV Urbani / Binding of serum 37 to looped/cyclic peptides of protein M of SARS-CoV Urbani / Binding of serum 6 to linear peptides of protein X3 of SARS-CoV Urbani / Binding of serum 37 to linear peptides of protein X3 of SARS-CoV Urbani / Binding of serum 37 to looped/cyclic peptides of protein X3 of SARS-CoV Urbani / Binding of serum 6 to linear peptides of protein X4 of SARS-CoV Urbani / Binding of serum 37 to linear peptides of protein X4 of SARS-CoV Urbani / Binding of serum 37 to looped/cyclic peptides of protein X4 of SARS-CoV Urbani / Binding of serum 6 to linear peptides of protein X5 of SARS-CoV Urbani / Binding of serum 37 to linear peptides of protein X5 of SARS-CoV Urbani / Binding of serum 37 to looped/cyclic peptides of protein X5 of SARS-CoV Urbani / Binding of serum 6 to linear peptides of protein N of SARS-CoV Urbani / Binding of serum 37 to linear peptides of protein N of SARS-CoV Urbani / Binding of serum 6 to linear peptide (PEPSCAN-ELISA) / Binding of serum 1a to looped/cyclic peptides of protein N of SARS-CoV Urbani / Binding of serum 1b to looped/cyclic peptides of protein N of SARS-CoV Urbani / Binding of serum 2 to looped/cyclic peptides of protein N of SARS-CoV Urbani / Binding of serum 6 to looped/cyclic peptides of protein N of SARS-CoV Urbani / Binding of serum 37 to looped/cyclic peptides of protein N of SARS-CoV Urbani / Binding of serum 62 to looped/cyclic peptides of protein N of SARS-CoV Urbani / Binding of serum London to looped/cyclic peptides of protein N of SARS-CoV Urbani / Binding of serum SARS-green to looped/cyclic peptides of protein N of SARS-CoV Urbani: unit not given here
[2] = system: control sera (pooled serum of ten healthy LUMC hospital workers; commercial negative donor pooled serum from the Dutch bloodbank); assay type: binding, human; parameters: Binding of Control serum LUMC to linear peptides / Binding of Control serum Blood-bank to linear peptides / Binding of Control serum LUMC to looped peptides / Binding of Control Serum Blood-Bank to Looped peptides / Binding of Control serum LUMC to linear peptides of the protein M of SARS-CoV Urbani / Binding of Control serum Blood-bank to linear peptides of the protein M of SARS-CoV Urbani / Binding of Control serum LUMC to looped peptides of the protein M of SARS-CoV Urbani / Binding of Control Serum Blood-Bank to Looped peptides of the protein M of SARS-CoV Urbani: unit not given here
[3] = system: rabbit serum obtained by immunizing a rabbit with the SARS-CoV strain Frankfurt 1; assay type: binding; parameters: Binding of a rabbit serum to linear peptides / Binding of a rabbit serum to looped peptides / Rabbit serum linear peptides / Rabbit serum looped peptides / Binding of a rabbit serum to linear peptides of protein N of SARS-CoV Urbani (Rabbit serum linear peptides) / Binding of a rabbit serum to looped/cyclic peptides of protein N of SARS-CoV Urbani (Rabbit serum looped peptides): unit not given here
[4] = system: recombinant human anti-SARS-CoV antibody 03-018; assay type: binding; parameters: Binding of antibody 03-018 to linear peptides of the N protein of SARS-CoV Urbani / Binding of antibody 03-018 to looped/cyclic peptides of the N protein of SARS-CoV Urbani: unit not given here

Row | Sequence | Binding of serum 1a to looped/cyclic peptides of protein N of SARS-CoV Urbani [1] | Binding of serum 1b to looped/cyclic peptides of protein N of SARS-CoV Urbani [1] | Binding of serum 2 to looped/cyclic peptides of protein N of SARS-CoV Urbani [1] | Binding of serum 6 to looped/cyclic peptides of protein N of SARS-CoV Urbani [1] | Binding of serum 37 to looped/cyclic peptides of protein N of SARS-CoV Urbani [1] | Binding of serum 62 to looped/cyclic peptides of protein N of SARS-CoV Urbani [1] | Binding of serum London to looped/cyclic peptides of protein N of SARS-CoV Urbani [1] | Binding of serum SARS-green to looped/cyclic peptides of protein N of SARS-CoV Urbani [1] | Binding of serum SARS-yellow to looped/cyclic peptides of protein N of SARS-CoV Urbani [1] | Binding of Control Serum Blood-Bank to Looped peptides [2] | Binding of Control serum Blood-bank to linear peptides [2] | Binding of Control serum LUMC to linear peptides [2] | Binding of Control serum LUMC to looped peptides [2] | Binding of a rabbit serum to linear peptides of protein N of SARS-CoV Urbani (Rabbit serum linear peptides) [3] | Binding of a rabbit serum to looped/cyclic peptides of protein N of SARS-CoV Urbani (Rabbit serum looped peptides) [3] | Binding of antibody 03-018 to linear peptides of the N protein of SARS-CoV Urbani [4] | Binding of antibody 03-018 to looped/cyclic peptides of the N protein of SARS-CoV Urbani [4] | Binding of serum 1a to linear peptides of protein N of SARS-CoV Urbani [1] | Binding of serum 1b to linear peptides of protein N of SARS-CoV Urbani [1] | Binding of serum 2 to linear peptides of protein N of SARS-CoV Urbani [1] | other results
1 | GSQASSRSSSRSRGN | 0.4 | 0.2 | 0.4 | 0.3 | 0.7 | 0.6 | 0.5 | 0.1 | 0.5 | 0.6 | 0.8 | 0.8 | 0.6 | 0.2 | 0.7 | 0.1 | 0.2 | – | – | – | Binding of serum 1a to linear peptide (PEPSCAN-ELISA) [1]: 0.3; Binding of serum 1b to linear peptide (PEPSCAN-ELISA) [1]: 0.1; Binding of serum 2 to linear peptide (PEPSCAN-ELISA) [1]: 0.4; Binding of serum 6 to linear peptide (PEPSCAN-ELISA) [1]: 0.4; Binding of serum 37 to linear peptide (PEPSCAN-ELISA) [1]: 0.7; Binding of serum 62 to linear peptide (PEPSCAN-ELISA) [1]: 0.6; Binding of serum London to linear peptide (PEPSCAN-ELISA) [1]: 0.6; Binding of serum SARS-green to linear peptide (PEPSCAN-ELISA) [1]: 0.3; Binding of serum SARS-yellow to linear peptide (PEPSCAN-ELISA) [1]: 0.7
2 | GTWLTYHGAIKLDDK | 0.2 | 0.1 | 0.2 | 0.1 | 0.4 | 0.3 | 0.3 | 0.1 | 0.5 | – | – | – | – | 0.1 | 0.2 | 0.1 | 0.2 | 0.2 | 0.1 | 0.2 | Binding of serum 6 to linear peptides of protein N of SARS-CoV Urbani [1]: 0.1; Binding of serum 37 to linear peptides of protein N of SARS-CoV Urbani [1]: 0.7; Binding of serum 62 to linear peptides of protein N of SARS-CoV Urbani [1]: 0.7; Binding of serum London to linear peptides of protein N of SARS-CoV Urbani [1]: 0.5; Binding of serum SARS-green to linear peptides of protein N of SARS-CoV Urbani [1]: 0.4; Binding of serum SARS-yellow to linear peptides of protein N of SARS-CoV Urbani [1]: 0.7; Control Serum Blood-Bank Looped peptides [2]: 0.4; Control serum Blood-bank linear peptides [2]: 0.6; Control serum LUMC linear peptides [2]: 0.6; Control serum LUMC looped peptides [2]: 0.4
3 | GVPINTNSGPDDQIG | 0.3 | 0.2 | 0.2 | 0.1 | 0.5 | 0.3 | 0.3 | 0.3 | 0.2 | 0.4 | 0.7 | 0.7 | 0.4 | 0.1 | 0.2 | 0.1 | 0.2 | 0.3 | 0.1 | 0.2 | Binding of serum 6 to linear peptides of protein N of SARS-CoV Urbani [1]: 0.2; Binding of serum 37 to linear peptides of protein N of SARS-CoV Urbani [1]: 0.8; Binding of serum 62 to linear peptides of protein N of SARS-CoV Urbani [1]: 0.6; Binding of serum London to linear peptides of protein N of SARS-CoV Urbani [1]: 0.5; Binding of serum SARS-green to linear peptides of protein N of SARS-CoV Urbani [1]: 0.5; Binding of serum SARS-yellow to linear peptides of protein N of SARS-CoV Urbani [1]: 0.5
4 | GYYRRATRRVRGGDG | 0.3 | 0.1 | 0.4 | 0.2 | 0.5 | 0.4 | 0.3 | 0.2 | 0.2 | 0.6 | 0.6 | 0.6 | 0.5 | – | – | 0.1 | 0.2 | 0.3 | 0.1 | 0.1 | Binding of serum 6 to linear peptides of protein N of SARS-CoV Urbani [1]: 0.2; Binding of serum 37 to linear peptides of protein N of SARS-CoV Urbani [1]: 0.3; Binding of serum 62 to linear peptides of protein N of SARS-CoV Urbani [1]: 0.4; Binding of serum London to linear peptides of protein N of SARS-CoV Urbani [1]: 0.4; Binding of serum SARS-green to linear peptides of protein N of SARS-CoV Urbani [1]: 0.2; Binding of serum SARS-yellow to linear peptides of protein N of SARS-CoV Urbani [1]: 0.6; Recognition of the peptide by the rabbit serum [3]: recognized
